What all share (type): functional
Experiment [1] concerns Human respirovirus 3. Description: Virus rating against parainfluenza virus type 3.
Experiment [2] has as its system Human rhinovirus 1A. As to the kind of experiment: Virus rating against rhinovirus type 1A.
Experiment [3] has as its system Human alphaherpesvirus 2. As to the kind of experiment: Virus rating of against herpes simplex virus type 2.
In experiment [4] the test system is Human adenovirus 2. As to the kind of experiment: Virus rating against adenovirus type 2.

Turning to `OC[C@H]1OC(n2ncc3c(S)ncnc32)[C@H](O)[C@@H]1O` (stereo not given in full), the Rating in experiment [1] is listed as 0.7; in experiment [2], 0; in experiment [3], 0; in experiment [4], 0.

In the case of `NC(=O)C1NN=C([C@@H]2O[C@H](CO)[C@@H](O)[C@H]2O)C1=O` (stereo not given in full), the Rating in experiment [1] is recorded as 1.65; in experiment [2], 0.6; in experiment [3], 1; in experiment [4], 0.

As for `NC(=O)c1ncn([C@@H]2O[C@H](CO)[C@@H](O)[C@H]2O)n1` [RIBAVIRIN], the Rating is on record as 1.3 in experiment [1], 0.7 in experiment [2], 1.4 in experiment [3] and 0.3 in experiment [4].

Consider `NC(=O)c1cn(C2O[C@H](CO)[C@@H](O)[C@H]2O)[nH]c1=O` (stereo not given in full), for which the Rating in experiment [1] was 0.15; in experiment [2], 0; in experiment [3] it was 0; in experiment [4], 0.

Turning to `COc1c([C@@H]2O[C@H](CO)[C@@H](O)[C@H]2O)nn(C)c1C(N)=O`, the Rating stood at 1.65 in experiment [1], 0 in experiment [2], 0.3 in experiment [3] and 1 in experiment [4].

With `OC[C@H]1OC(n2cc3c(O)nc(Cl)nc3n2)[C@H](O)[C@@H]1O` (stereo not given in full), the Rating in experiment [1] was found to be 0.25; in experiment [2] it was 0; in experiment [3], 0; in experiment [4], 0.

In the case of `Nc1ncnc2c([C@@H]3O[C@H](CO)[C@@H](O)[C@H]3O)[nH]nc12` [FORMYCIN], the Rating turned out to be 1.4 in experiment [1], 0.1 in experiment [2], 0.2 in experiment [3] and 0 in experiment [4].

Regarding `Cn1nc([C@@H]2O[C@H](CO)[C@@H](O)[C@H]2O)c2ncnc(N)c21`, the Rating was determined as 0.86 in experiment [1], 0 in experiment [2], 0.2 in experiment [3] and 0 in experiment [4].

On to `Nc1[nH]c(=O)nc2c([C@@H]3O[C@H](CO)[C@@H](O)[C@H]3O)n[nH]c12`, for which the Rating was determined as 1.22 in experiment [1], 0 in experiment [2], 0.75 in experiment [3] and 0 in experiment [4].

As to `O=c1[nH]c(=O)c2[nH]nc([C@@H]3O[C@H](CO)[C@@H](O)[C@H]3O)c2[nH]1`, the Rating in experiment [1] stood at 0.68; in experiment [2] it was 0; in experiment [3] it was 0.12; in experiment [4], 0.

With `CSc1ncnc2c1ncn2[C@@H]1O[C@H](CO)[C@@H](O)[C@H]1O`, the Rating in experiment [1] is reported as 2.2; in experiment [2] it was 0.8; in experiment [3], 1.25; in experiment [4], 0.

As for `CSc1ncnc2c1cnn2C1O[C@H](CO)[C@@H](O)[C@H]1O` (stereo not given in full), the Rating is recorded as 1.05 in experiment [1], 0.6 in experiment [2], 0 in experiment [3] and 0 in experiment [4].

As to `O=C1N=CN=C2C([C@@H]3O[C@H](CO)[C@@H](O)[C@H]3O)=NNC12` (stereo not given in full), the Rating in experiment [1] is 0.94; in experiment [2] it was 0.3; in experiment [3], 0; in experiment [4], 0.

On to `Nc1nn(C2O[C@H](CO)[C@@H](O)[C@H]2O)c2nc[nH]c(=O)c12` (stereo not given in full), for which the Rating in experiment [1] is reported as 0.28; in experiment [2], 0; in experiment [3], 0; in experiment [4], 0.

Consider `Nc1nc(Cl)cc2c1ncn2C1O[C@H](CO)[C@@H](O)[C@H]1O` (stereo not given in full), for which the Rating in experiment [1] is reported as 0.35; in experiment [2] it was 0; in experiment [3], 0; in experiment [4] it was 0.

As to `Nc1nc(Cl)nc2c1cnn2C1O[C@H](CO)[C@@H](O)[C@H]1O` (stereo not given in full), the Rating in experiment [1] was 0.15; in experiment [2], 0; in experiment [3], 0; in experiment [4], 0.

With `NC(=O)c1csc([C@@H]2O[C@H](CO)[C@@H](O)[C@H]2O)n1` [TIAZOFURIN], the Rating stood at 1.3 in experiment [1], 0 in experiment [2], 1.19 in experiment [3] and 0.2 in experiment [4].

Turning to `CSc1ncnc2c1ccn2[C@@H]1O[C@H](CO)[C@@H](O)[C@H]1O`, the Rating turned out to be 0.9 in experiment [1], 0.6 in experiment [2], 0 in experiment [3] and 0 in experiment [4].

`Cn1nc([C@@H]2O[C@H](CO)[C@@H](O)[C@H]2O)c2nc(=O)[nH]c(N)c21` gave a Rating in experiment [1] of 0.88.

As for `OC[C@H]1O[C@@H](C2=NNC3C(=S)N=CN=C23)[C@H](O)[C@@H]1O` (stereo not given in full), the Rating in experiment [1] turned out to be 1.1; in experiment [2], 0.9; in experiment [3], 0; in experiment [4], 1.

With `Cn1cnc2c([C@@H]3O[C@H](CO)[C@@H](O)[C@H]3O)nnc-2c1N`, the Rating amounted to 1.16 in experiment [1], 0 in experiment [2], 0.88 in experiment [3] and 0 in experiment [4].

Turning to `CSc1ncnc2c([C@@H]3O[C@H](CO)[C@@H](O)[C@H]3O)n[nH]c12`, the Rating worked out at 1.35 in experiment [1], 0 in experiment [2], 0.3 in experiment [3] and 0.8 in experiment [4].

`CN1C=NC(N)=C2NNC([C@@H]3O[C@H](CO)[C@@H](O)[C@H]3O)=C21`: the Rating is 1.28 in experiment [1], 0 in experiment [2], 0 in experiment [3] and 0 in experiment [4].

In the case of `NC(=O)c1ccnc([C@@H]2O[C@H](CO)[C@@H](O)[C@H]2O)n1`, the Rating came to 0.25 in experiment [1], 0 in experiment [2], 0 in experiment [3] and 0 in experiment [4].

On to `N=C(N)c1ncn([C@@H]2O[C@H](CO)[C@@H](O)[C@H]2O)n1` [TARIBAVIRIN], for which the Rating worked out at 1.2 in experiment [1], 0.2 in experiment [2], 0 in experiment [3] and 0 in experiment [4].

On to `Nc1cc2c(ncn2[C@@H]2O[C@H](CO)[C@@H](O)[C@H]2O)c(=O)[nH]1`, for which the Rating in experiment [1] is listed as 0.8; in experiment [2], 1; in experiment [3], 1.06; in experiment [4] it was 0.2.

Regarding `O=c1[nH]cnc2c1ccn2[C@@H]1O[C@H](CO)[C@@H](O)[C@H]1O` [IMMUNICILLIN H], the Rating in experiment [1] was determined as 0.08; in experiment [2] it was 0; in experiment [4] it was 0.

With `OC[C@H]1O[C@@H](n2ccc3c(S)ncnc32)[C@H](O)[C@@H]1O`, in experiment [1], the Rating amounted to 1.15.

The record behind these values is ChEMBL document CHEMBL1124438, “Analysis of the in vitro antiviral activity of certain ribonucleosides against parainfluenza virus using a novel computer aided receptor modeling procedure” (1989).
